“Also recorded” adds a separate entry of the source.
Molecular target: T1, FXR (Homo sapiens, UniProt Q96RI1)
T1 construct: using a full length FXR on a natural response element; expressed in transfected cells
T1 sequence (Q96RI1 1-486): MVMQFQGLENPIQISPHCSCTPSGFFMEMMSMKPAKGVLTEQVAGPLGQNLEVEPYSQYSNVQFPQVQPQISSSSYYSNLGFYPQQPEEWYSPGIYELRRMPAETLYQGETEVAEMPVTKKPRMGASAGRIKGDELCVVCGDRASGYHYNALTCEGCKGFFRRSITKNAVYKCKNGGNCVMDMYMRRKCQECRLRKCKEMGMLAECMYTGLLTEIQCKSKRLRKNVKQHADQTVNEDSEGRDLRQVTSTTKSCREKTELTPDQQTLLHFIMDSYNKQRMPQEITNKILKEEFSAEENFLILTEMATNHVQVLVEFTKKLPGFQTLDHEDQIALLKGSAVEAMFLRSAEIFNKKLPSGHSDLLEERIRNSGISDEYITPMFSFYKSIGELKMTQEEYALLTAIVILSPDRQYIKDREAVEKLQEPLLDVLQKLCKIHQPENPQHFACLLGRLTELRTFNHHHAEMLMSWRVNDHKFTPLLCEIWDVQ
Test: cell-based FXR transcription assay, FXR responsive promoter linked to luciferase reporter
Details: for RE^a / EC50: cell-based FXR reporter assay; for RE^a: footnote a not given; for FXR activation, in words: cell-based reporter assay, SAR discussion; for EC50: determined with Prism 3.0
Text: In addition to ensuring that only cell permeable compounds were selected for further optimization, this approach allows for the detection of FXR activation in a natural system (i.e., correct folding of the protein and in the presence of a complete compliment of co-activators and co-repressors).
The feasibility of creating high throughput screens (HTS) for ORs was explored using FXR as a candidate orphan receptor (OR) with a known activator, chenodeoxycholic acid (CDCA) as a ligand. The screen is based on the co-transfection of a full-length receptor with the reporter vector containing a natural hormone response element under a minimal eukaryotic promoter. […] Using this 384-well format, the high throughput screening (HTS) approach to FXR as a candidate OR was employed. […] A central question in the feasibility studies is whether this library is suitable for screening for nuclear receptor ligands. Samples of this library were first reformatted into a 384-well format and then subjected to the FXR cell-based assays described above and assessed for FXR-mediated transcriptional activity. Cells were exposed to approximately 10 μM of sample for 18 hrs prior to washing and luciferase analysis.
EC50 values were determined with Prism 3.0 software via the activity of the subject compound in the previously described cell based assay.

Row | Structure (SMILES) | RE^a | FXR activation, in words | EC50
1 | COC(=O)C=Cc1cccc(N(Cc2ccc(C=CC(=O)OC(C)(C)C)cc2)C(=O)NCc2ccccc2)c1 [Compound 146] | 0.27 | only marginal efficacy | 
2 | COC(=O)C=Cc1cccc(N(C)C(=O)C2CCCCC2)c1 [Compound 147] | 0.09 |  | 
3 | COC(=O)C=Cc1cccc(N(Cc2ccc(C(C)(C)C)cc2)C(=O)C2CCCCC2)c1 [Compound 148] | 0.15 |  | 
4 | COC(=O)C=Cc1ccc(CN(C(=O)C2CCCCC2)c2cccc(C=CC(=O)OC)c2)cc1 [Compound 150] | 0.87 |  | 
5 | CCOC(=O)C=Cc1ccc(CN(C(=O)C2CCCCC2)c2cccc(C=CC(=O)OC)c2)cc1 [Compound 151] | 1.14 |  | 
6 | COC(=O)C=Cc1cccc(N(Cc2ccc(C=CC(=O)OC(C)C)cc2)C(=O)C2CCCCC2)c1 [Compound 152] | 1.97 |  | 
7 | COC(=O)C=Cc1cccc(N(Cc2ccc(C=CC(=O)OCc3ccccc3)cc2)C(=O)C2CCCCC2)c1 [Compound 153] | 0.23 |  | 
8 | COC(=O)C=Cc1cccc(N(Cc2ccc(C=CC(=O)N(C)C)cc2)C(=O)C2CCCCC2)c1 [Compound 154] | 0.66 |  | 
9 | COC(=O)C=Cc1cccc(N(Cc2ccc(C=CC(=O)NC(C)(C)C)cc2)C(=O)C2CCCCC2)c1 [Compound 155] | 1.65 |  | > 1000 nM
10 | COCC=Cc1ccc(CN(C(=O)C2CCCCC2)c2cccc(C=CC(=O)OC)c2)cc1 [Compound 156] | 1.63 |  | 
11 | CCOCC=Cc1ccc(CN(C(=O)C2CCCCC2)c2cccc(C=CC(=O)OC)c2)cc1 [Compound 157] | 2.06 |  | 
12 | COC(=O)C=Cc1cccc(N(Cc2ccc(C=CCOc3ccccc3)cc2)C(=O)C2CCCCC2)c1 [Compound 158] | 0.64 | only micromolar activity | 
13 | COC(=O)C=Cc1cccc(N(Cc2ccc(CCC(=O)OC(C)(C)C)cc2)C(=O)C2CCCCC2)c1 [Compound 159] | 1.56 |  | 
14 | CC(C)(C)OC(=O)/C=C/c1cccc(N(Cc2ccc(CCC(=O)OC(C)(C)C)cc2)C(=O)C2CCCCC2)c1 [Compound 160] | 0.64 |  | 
15 | COC(=O)C=Cc1cccc(N(Cc2ccc(C=CC(=O)OC(C)(C)C)cc2O)C(=O)C2CCCCC2)c1 [Compound 161] | 0.12 |  | 
16 | COC(=O)C=Cc1cccc(N(Cc2ccc(C=CC(=O)OC(C)(C)C)cc2OC)C(=O)C2CCCCC2)c1 [Compound 162] | 0.14 |  | 
17 | COC(=O)C=Cc1cccc(N(Cc2ccc(C=CC(=O)OC(C)(C)C)cc2OCc2ccccc2)C(=O)C2CCCCC2)c1 [Compound 163] | 0.38 |  | 
18 | COC(=O)C=Cc1cccc(N(Cc2ccc(C=CC(=O)OC(C)(C)C)cc2OC(C)=O)C(=O)C2CCCCC2)c1 [Compound 164] | 0.16 |  | 
19 | COC(=O)C=Cc1cccc(N(Cc2ccc(C=CC(=O)OC(C)(C)C)cc2OC(=O)c2ccccc2)C(=O)C2CCCCC2)c1 [Compound 165] | 0.16 |  | 
20 | COC(=O)C=Cc1cccc(N(Cc2ccc(C=CC(=O)OC(C)(C)C)cc2OS(C)(=O)=O)C(=O)C2CCCCC2)c1 [Compound 166] | 0.18 |  | 
21 | CCOC(=O)COc1cc(C=CC(=O)OC(C)(C)C)ccc1CN(C(=O)C1CCCCC1)c1cccc(C=CC(=O)OC)c1 [Compound 167] | 0.18 |  | 
22 | COC(=O)/C=C/c1cccc(N(Cc2ccc(/C=C/c3ccc(C)cc3)cc2)C(=O)C2CCCCC2)c1 [Compound 174] | 0.83 | among the least active | 
23 | COC(=O)/C=C/c1cccc(N(Cc2ccc(/C=C/c3ccc(C)cc3)cc2)C(=O)C(C)C)c1 [Compound 175] | 0.37 |  | 1410 nM
24 | COC(=O)/C=C/c1cccc(N(Cc2ccc(/C=C/c3ccc(C)cc3)cc2)C(=O)NC(C)C)c1 [Compound 176] | 0.10 |  | 3570 nM
25 | COC(=O)/C=C/c1cccc(N(Cc2ccc(/C=C/c3c(Cl)cccc3Cl)cc2)C(=O)C2CCCCC2)c1 [Compound 177] | 0.12 | excellent activity | 
26 | COC(=O)/C=C/c1cccc(N(Cc2ccc(/C=C/c3c(Cl)cccc3Cl)cc2)C(=O)C(C)C)c1 [Compound 178] | 0.14 |  | 

Row | Structure (SMILES) | RE^a | FXR activation, in words | EC50
27 | COC(=O)/C=C/c1cccc(N(Cc2ccc(/C=C/c3c(Cl)cccc3Cl)cc2)C(=O)NC(C)C)c1 [Compound 179] | 0.15 |  | 216 nM
28 | COC(=O)C=Cc1cccc(N(Cc2ccc(C=Cc3cccc(Cl)c3)cc2)C(=O)C2CCCCC2)c1 [Compound 180] | 1.41 | excellent activity | 
29 | COC(=O)/C=C/c1cccc(N(Cc2ccc(/C=C/c3cccc(Cl)c3)cc2)C(=O)C(C)C)c1 [Compound 181] | 1.09 | excellent activity | 164 nM
30 | COC(=O)/C=C/c1cccc(N(Cc2ccc(/C=C/c3cccc(Cl)c3)cc2)C(=O)NC(C)C)c1 [Compound 182] | 0.59 |  | 
31 | COC(=O)C=Cc1cccc(N(Cc2ccc(C=Cc3cc(C(F)(F)F)cc(C(F)(F)F)c3)cc2)C(=O)C2CCCCC2)c1 [Compound 183] | 0.15 |  | 1470 nM
32 | COC(=O)/C=C/c1cccc(N(Cc2ccc(/C=C/c3cc(C(F)(F)F)cc(C(F)(F)F)c3)cc2)C(=O)C(C)C)c1 [Compound 184] | 0.13 |  | 
33 | COC(=O)/C=C/c1cccc(N(Cc2ccc(/C=C/c3cc(C(F)(F)F)cc(C(F)(F)F)c3)cc2)C(=O)NC(C)C)c1 [Compound 185] | 0.13 |  | 
34 | COC(=O)C=Cc1cccc(N(Cc2ccc(C=Cc3cccc(C(F)(F)F)c3)cc2)C(=O)C2CCCCC2)c1 [Compound 186] | 0.35 |  | 937 nM
35 | COC(=O)/C=C/c1cccc(N(Cc2ccc(/C=C/c3cccc(C(F)(F)F)c3)cc2)C(=O)C(C)C)c1 [Compound 187] | 0.70 |  | 
36 | COC(=O)/C=C/c1cccc(N(Cc2ccc(/C=C/c3cccc(C(F)(F)F)c3)cc2)C(=O)NC(C)C)c1 [Compound 188] | 0.31 |  | 
37 | COC(=O)C=Cc1cccc(N(Cc2ccc(C=Cc3c(F)cccc3F)cc2)C(=O)C2CCCCC2)c1 [Compound 189] | 0.94 | excellent activity | 
38 | COC(=O)/C=C/c1cccc(N(Cc2ccc(/C=C/c3c(F)cccc3F)cc2)C(=O)C(C)C)c1 [Compound 190] | 0.79 | excellent activity | 108 nM
39 | COC(=O)/C=C/c1cccc(N(Cc2ccc(/C=C/c3c(F)cccc3F)cc2)C(=O)NC(C)C)c1 [Compound 191] | 0.21 |  | 
40 | COC(=O)C=Cc1cccc(N(Cc2ccc(C=Cc3ccccc3F)cc2)C(=O)C2CCCCC2)c1 [Compound 192] | 1.41 | excellent activity; also recorded: among the most active | 
41 | COC(=O)/C=C/c1cccc(N(Cc2ccc(/C=C/c3ccccc3F)cc2)C(=O)C(C)C)c1 [Compound 193] | 1.17 | excellent activity | 
42 | COC(=O)/C=C/c1cccc(N(Cc2ccc(/C=C/c3ccccc3F)cc2)C(=O)NC(C)C)c1 [Compound 194] | 0.69 |  | 
43 | COC(=O)C=Cc1cccc(N(Cc2ccc(C=Cc3c(C)cc(C)cc3C)cc2)C(=O)C2CCCCC2)c1 [Compound 195] | 0.24 | among the least active | 
44 | COC(=O)/C=C/c1cccc(N(Cc2ccc(/C=C/c3c(C)cc(C)cc3C)cc2)C(=O)C(C)C)c1 [Compound 196] | 0.30 |  | 
45 | COC(=O)/C=C/c1cccc(N(Cc2ccc(/C=C/c3c(C)cc(C)cc3C)cc2)C(=O)NC(C)C)c1 [Compound 197] | 0.14 |  | 
46 | COC(=O)/C=C/c1cccc(N(Cc2ccc(/C=C/c3ccccc3)cc2)C(=O)C(C)C)c1 [Compound 198] | 1.33 | excellent activity | 
47 | COC(=O)/C=C/c1cccc(N(Cc2ccc(/C=C/c3ccccc3)cc2)C(=O)NC(C)C)c1 [Compound 200] | 1.38 |  | 
48 | COC(=O)C=Cc1cccc(N(Cc2ccc(C=Cc3cccc(F)c3)cc2)C(=O)C2CCCCC2)c1 [Compound 201] | 1.36 | excellent activity; also recorded: among the most active | 
49 | COC(=O)/C=C/c1cccc(N(Cc2ccc(/C=C/c3cccc(F)c3)cc2)C(=O)C(C)C)c1 [Compound 202] | 1.33 | excellent activity | 
50 | COC(=O)/C=C/c1cccc(N(Cc2ccc(/C=C/c3cccc(F)c3)cc2)C(=O)NC(C)C)c1 [Compound 203] | 0.61 |  | 
51 | COC(=O)C=Cc1cccc(N(Cc2ccc(C=Cc3ccc(F)cc3)cc2)C(=O)C2CCCCC2)c1 [Compound 204] | 0.53 | excellent activity; also recorded: among the most active | 
